From patent US11051515B2, “3-acyl-benzamides and their use as herbicides” (Bayer Aktiengesellschaft, priority 2017, dated 2021)

Columns and labels:
MATIN [1] = experiment: Post-emergence action against MATIN; assay type: in vivo, Matricaria inodora; settings: post-emergence, dosage 80 g/ha, visual assessment about 3 weeks after treatment vs untreated controls
How it was run: (§1)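 Weeds grown in sandy loam in greenhouse, treated at one-leaf stage (2–3 weeks after sowing) with WP or EC formulations sprayed as aqueous suspension/emulsion at 600 to […] water with 0.2% wetting agent. Visual rating after about 3 weeks versus untreated controls, as % herbicidal action (100% = plants dead, 0% = like control).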

CYPES = experiment: Pre-emergence action against CYPES; assay type: in vivo, Cyperus esculentus; settings: pre-emergence, dosage 320 g/ha, scored visually after 3 weeks vs untreated controls
How it was run: (§2)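 Seeds sown in sandy loam in wood-fiber pots and covered with soil. Greenhouse growth; visual damage scored after 3 weeks versus untreated controls (100% = dead, 0% = like control).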

ECHCG [2] = experiment: Pre-emergence action against ECHCG; assay type: in vivo, Echinochloa crus-galli; settings: pre-emergence, dosage 320 g/ha, scored visually after 3 weeks vs untreated controls
How it was run: as §2

MATIN [3] = experiment: Pre-emergence action against MATIN; assay type: in vivo, Matricaria inodora; settings: Dosage 320 g/ha, pre-emergence
How it was run: as §2

STEME [4] = experiment: Pre-emergence action against STEME; assay type: in vivo, Stellaria media; settings: Dosage 320 g/ha, pre-emergence
How it was run: as §2

AMARE [5] = experiment: Pre-emergence action against AMARE; assay type: in vivo, Amaranthus retroflexus; settings: pre-emergence, dosage 320 g/ha, scored visually after 3 weeks vs untreated controls
How it was run: as §2

VERPE [6] = experiment: Pre-emergence action against VERPE; assay type: in vivo, Veronica persica; settings: Dosage 320 g/ha, pre-emergence
How it was run: as §2

AMARE [7] = experiment: Post-emergence action against AMARE; assay type: in vivo, Amaranthus retroflexus; settings: post-emergence, dosage 80 g/ha, visual assessment about 3 weeks after treatment vs untreated controls
How it was run: as §1

HORMU = experiment: Pre-emergence action against HORMU; assay type: in vivo, Hordeum murinum; settings: Dosage 320 g/ha
Text: (§3) Seeds of monocotyledonous and dicotyledonous weed plants and crop plants are laid out in sandy loam soil in wood-fiber pots and covered with soil. The compounds of the invention, formulated in the form of wettable powders (WP) or as emulsion concentrates (EC), are then applied to the surface of the covering soil in the form of an aqueous suspension or emulsion at a water application rate equating to […], with addition of 0.2% wetting agent. After the treatment, the pots are placed in a greenhouse and kept under good growth conditions for the trial plants. The damage to the test plants is scored visually after a test period of 3 weeks by comparison with untreated controls (herbicidal activity in percent (%): 100% activity=the plants have died, 0% activity=like control plants).

LOLRI = experiment: Pre-emergence action against LOLRI; assay type: in vivo, Lolium rigidum; settings: dosage 320 g/ha, scored visually after 3 weeks vs untreated controls
Text: as §3

ALOMY = experiment: Pre-emergence action against ALOMY; assay type: in vivo, Alopecurus myosuroides; settings: dosage 320 g/ha, pre-emergence, scored visually after 3 weeks vs untreated controls, 100% = plants have died, 0% = like control plants
How it was run: as §2

SETVI = experiment: Pre-emergence action against SETVI; assay type: in vivo, Setaria viridis; settings: pre-emergence, dosage 320 g/ha, scored visually after 3 weeks vs untreated controls
How it was run: as §2

PHBPU [8] = experiment: Post-emergence action against PHBPU; assay type: in vivo, Pharbitis purpurea; settings: post-emergence, dosage 80 g/ha
How it was run: as §1

PHBPU [9] = experiment: Pre-emergence action against PHBPU; assay type: in vivo, Pharbitis purpurea; settings: Dosage 320 g/ha, pre-emergence
How it was run: as §2

ECHCG [10] = experiment: Post-emergence action against ECHCG; assay type: in vivo, Echinochloa crus-galli; settings: post-emergence, dosage 80 g/ha, visual assessment about 3 weeks after treatment vs untreated controls
How it was run: as §1

VIOTR [11] = experiment: Post-emergence action against VIOTR; assay type: in vivo, Viola tricolor; settings: post-emergence, dosage 80 g/ha
How it was run: as §1

VIOTR [12] = experiment: Pre-emergence action against VIOTR; assay type: in vivo, Viola tricolor; settings: Dosage 320 g/ha, pre-emergence
How it was run: as §2

ABUTH [13] = experiment: Pre-emergence action against ABUTH; assay type: in vivo, Abutilon theophrasti; settings: pre-emergence, dosage 320 g/ha, scored visually after 3 weeks vs untreated controls
How it was run: as §2

STEME [14] = experiment: Post-emergence action against STEME; assay type: in vivo, Stellaria media; settings: post-emergence, dosage 80 g/ha
How it was run: as §1

VERPE [15] = experiment: Post-emergence action against VERPE; assay type: in vivo, Veronica persica; settings: Veronica persica, 504 h, dosage 80 g/ha
How it was run: as §1

ABUTH [16] = experiment: Post-emergence action against ABUTH; assay type: in vivo, Abutilon theophrasti; settings: post-emergence, dosage 80 g/ha, visual assessment about 3 weeks after treatment vs untreated controls
How it was run: as §1

AVEFA = experiment: Pre-emergence action against AVEFA; assay type: in vivo, Avena fatua; settings: dosage 320 g/ha, scored visually after 3 weeks vs untreated controls
How it was run: as §2

Compound: CCCC(=O)c1c(C(F)(F)F)ccc(C(=O)Nc2nnnn2C)c1Cl [1-139]
- pest or weed control at 80 g/ha (MATIN [1]; Tripleurospermum inodorum, 504 h, read-out: Post-emergence action against MATIN (herbicidal action in percent)): 90%
- pest or weed control at 320 g/ha (CYPES; Cyperus esculentus, 504 h, read-out: Pre-emergence action against CYPES (herbicidal activity)): 90%
- pest or weed control at 320 g/ha (ECHCG [2]; Echinochloa crus-galli, 504 h, read-out: Pre-emergence action against ECHCG (herbicidal activity)): 100%
- pest or weed control at 320 g/ha (MATIN [3]; Tripleurospermum inodorum, 504 h): 100%
- pest or weed control at 320 g/ha (STEME [4]; Stellaria media, 504 h): 100%
- pest or weed control at 320 g/ha (AMARE [5]; Amaranthus retroflexus, 504 h, read-out: Pre-emergence action against AMARE (herbicidal activity)): 100%
- pest or weed control at 320 g/ha (VERPE [6]; Veronica persica, 504 h): 100%
- pest or weed control at 80 g/ha (AMARE [7]; Amaranthus retroflexus, 504 h, read-out: Post-emergence action against AMARE (herbicidal action in percent)): 100%
- pest or weed control at 320 g/ha (HORMU; Hordeum murinum, 504 h): 90%
- pest or weed control at 320 g/ha (LOLRI; Lolium rigidum, 504 h, read-out: Pre-emergence action against LOLRI (herbicidal activity)): 100%
- pest or weed control at 320 g/ha (ALOMY; Alopecurus myosuroides, 504 h, read-out: Pre-emergence action against ALOMY (herbicidal activity in percent)): 100%
- pest or weed control at 320 g/ha (SETVI; Setaria viridis, 504 h, read-out: SETVI (Table B8, pre-emergence herbicidal activity)): 100%
- pest or weed control at 80 g/ha (PHBPU [8]; Ipomoea purpurea, 504 h): 100%
- pest or weed control at 320 g/ha (PHBPU [9]; Ipomoea purpurea, 504 h): 100%
- pest or weed control at 80 g/ha (ECHCG [10]; Echinochloa crus-galli, 504 h, read-out: Post-emergence action against ECHCG (herbicidal action in percent)): 90%
- pest or weed control at 80 g/ha (VIOTR [11]; Viola tricolor, 504 h): 100%
- pest or weed control at 320 g/ha (VIOTR [12]; Viola tricolor, 504 h): 100%
- pest or weed control at 320 g/ha (ABUTH [13]; Abutilon theophrasti, 504 h, read-out: Pre-emergence action against ABUTH (herbicidal activity)): 100%
- pest or weed control at 80 g/ha (STEME [14]; Stellaria media, 504 h): 100%
- pest or weed control at 80 g/ha (VERPE [15]): 80%
- pest or weed control at 80 g/ha (ABUTH [16]; Abutilon theophrasti, 504 h, read-out: Post-emergence action against ABUTH (herbicidal action in percent)): 90%
- pest or weed control at 320 g/ha (AVEFA; Avena fatua, 504 h, read-out: Pre-emergence action against AVEFA (herbicidal activity)): 100%

Compound: CCCC(=O)c1c(C(F)(F)F)ccc(C(=O)Nc2nnnn2CC)c1Cl [2-139]
- Post-emergence action against MATIN (herbicidal action in percent) (MATIN [1]): 90%
- Pre-emergence action against CYPES (herbicidal activity) (CYPES): 100%
- Pre-emergence action against ECHCG (herbicidal activity) (ECHCG [2]): 100%
- Pre-emergence action against MATIN (MATIN [3]): 100%
- Pre-emergence action against STEME (STEME [4]): 100%
- Pre-emergence action against AMARE (herbicidal activity) (AMARE [5]): 100%
- Pre-emergence action against VERPE (VERPE [6]): 100%
- Post-emergence action against AMARE (herbicidal action in percent) (AMARE [7]): 100%
- Pre-emergence action against HORMU (HORMU): 80%
- Pre-emergence action against LOLRI (herbicidal activity) (LOLRI): 100%
- Pre-emergence action against ALOMY (herbicidal activity in percent) (ALOMY): 100%
- SETVI (Table B8, pre-emergence herbicidal activity) (SETVI): 100%
- Post-emergence action against PHBPU (PHBPU [8]): 100
- Pre-emergence action against PHBPU (PHBPU [9]): 100%
- Post-emergence action against ECHCG (herbicidal action in percent) (ECHCG [10]): 90%
- Post-emergence action against VIOTR (VIOTR [11]): 100
- Pre-emergence action against VIOTR (VIOTR [12]): 100%
- Pre-emergence action against ABUTH (herbicidal activity) (ABUTH [13]): 100%
- Post-emergence action against STEME (STEME [14]): 100
- Post-emergence action against ABUTH (herbicidal action in percent) (ABUTH [16]): 90%
- Pre-emergence action against AVEFA (herbicidal activity) (AVEFA): 80%
